Legend:
EGFR (T790M/L858R) = molecular target: T1, EGFR (T790M/L858R) (Homo sapiens, UniProt P00533, L858R/T790M); assay: EGFR (T790M/L858R) kinase inhibitory activity (in vitro); type: biochemical; details: for IC50: recombinant human protein, ATP 1 μM, 120 minutes; for inhibitory activities for EGFR (L858R), EGFR (d746-750), EGFR (T790M/L858R) and EGFR (d746-750/T790M), in words: summary of Table 1, all four mutant kinases
T1 construct: purchased Carna Biosciences, Inc
Method: 1) Measurement of EGFR (T790M/L858R) Kinase Inhibitory Activity
The inhibitory activities of the compounds I-1, I-2, I-3, I-4, I-5, I-6, I-7, I-8, and I-9 for EGFR (T790M/L858R) kinase were measured.
The materials were as follows. The substrate peptide was a biotinylated peptide (biotin-EEPLYWSFPAKKK) synthesized by reference to the amino acid sequence of FL-Peptide 22 (a reagent for LabChip® Series; Caliper Life Sciences, Inc.). The EGFR (T790M/L858R) was a purified recombinant human EGFR (T790M/L858R) protein purchased from Carna Biosciences, Inc.
(§1) The measurement method was as follows. The compounds I-1, I-2, I-3, I-4, I-5, I-6, I-7, I-8, and I-9 were each dissolved in dimethylsulfoxide (DMSO), and then each serially diluted with DMSO. Next, the EGFR (T790M/L858R) protein, substrate peptide (final concentration: 250 nM), magnesium chloride (final concentration: 10 mM), manganese chloride (final concentration: 10 mM), ATP (final concentration: 1 μM), and the diluted DMSO solution of each compound (final concentration of DMSO: 2.5%) were added to a kinase reaction buffer (Carna Biosciences, Inc.), and the mixture was incubated at 25° C. for 120 minutes for kinase reaction. EDTA was added thereto to a final concentration of 24 mM to thereby terminate the reaction. Then, a detection solution containing europium (Eu)-labeled anti-phosphorylated tyrosine antibody PT66 (PerkinElmer) and SureLight APC-SA (PerkinElmer) was added, and the resulting mixture was allowed to stand at room temperature for 2 hours or more. Finally, the intensity of fluorescence under the excitation light with a wavelength of 337 nm was measured by a PHERAstar FS (BMG LABTECH) at two wavelengths of 620 nm and 665 nm. The level of phosphorylation of each test sample was calculated from the fluorescence intensity ratio of the two wavelengths in DMSO control and in the test sample, and the compound concentration at which phosphorylation was inhibited by 50% was determined as the IC50 value (nM) of each compound.

EGFR (d746-750/T790M) = molecular target: T2, EGFR (d746-750/T790M) (Homo sapiens, UniProt P00533, DEL746-750/T790M); assay: EGFR (d746-750/T790M) kinase inhibitory activity (in vitro); type: biochemical; details: recombinant human protein, ATP 1.5 μM
T2 construct: purchased Carna Biosciences, Inc
Method: as §1
2) Measurement of EGFR (d746-750/T790M) Kinase Inhibitory Activity
The inhibitory activities of the compounds I-1, I-2, I-3, I-4, I-5, I-6, I-7, I-8, and I-9 for EGFR (d746-750/T790M) kinase were measured.
(§2) The materials were as follows. The EGFR (d746-750/T790M) was a purified recombinant human EGFR (d746-750/T790M) protein purchased from Carna Biosciences, Inc. The final concentration of ATP was 1.5 μM. As for other conditions, the same materials and methods as those used in the measurement of EGFR (T790M/L858R) kinase inhibitory activity were used to determine the IC50 value (nM) of each compound.

EGFR (L858R) = molecular target: T3, EGFR (L858R) (Homo sapiens, UniProt P00533, L858R); assay: EGFR (L858R) kinase inhibitory activity (in vitro); type: biochemical; details: recombinant human protein, ATP 4 μM
T3 construct: purchased Carna Biosciences, Inc
Method: as §1
3) Measurement of EGFR (L858R) Kinase Inhibitory Activity
The inhibitory activities of the compounds I-1, I-2, I-3, I-4, I-5, I-6, I-7, I-8, and I-9 for EGFR (L858R) kinase were measured.
as §2, with “(L858R)” for “(d746-750/T790M)”, “4” for “1.5”

EGFR (d746-750) = molecular target: T4, EGFR (d746-750) (Homo sapiens, UniProt P00533, DEL746-750); assay: EGFR (d746-750) kinase inhibitory activity (in vitro); type: biochemical; details: recombinant human protein, ATP 5 μM, 90 minutes
T4 construct: purchased Carna Biosciences, Inc
Method: as §1
4) Measurement of EGFR (d746-750) Kinase Inhibitory Activity
The inhibitory activities of the compounds I-1, I-2, I-3, I-4, I-5, I-6, I-7, I-8, and I-9 for EGFR (d746-750) kinase activity were measured.
as §2, with “(d746-750)” for “(d746-750/T790M)”, “5” for “1.5”, “μM. The incubation time for the kinase reaction was 90 minutes.” for “μM.”

EGFR (WT) = molecular target: T5, EGFR (WT) (Homo sapiens, UniProt P00533); assay: EGFR (WT) kinase inhibitory activity (in vitro); type: biochemical; details: for IC50: cytoplasmic domain of human EGFR (WT), ATP 4.7 μM, substrate peptide 500 nM; for inhibitory activities for EGFR (WT) compared with the mutant EGFR proteins, in words: summary of Table 1
T5 construct: the cytoplasmic domain of human EGFR (WT); FLAG (N); made in house; host or cells: baculovirus expression system, insect Sf9 cells
Method: as §1
The inhibitory activities of the compounds I-1, I-2, I-3, I-4, I-5, I-6, I-7, I-8, and I-9 on EGFR (WT) kinase were measured.
The materials were as follows. As the EGFR (WT), the cytoplasmic domain of human EGFR (WT) in which a FLAG tag was fused to the N-terminus was expressed in a baculovirus expression system using insect Sf9 cells, and purified with anti-FLAG antibody agarose (Sigma-Aldrich). The final concentration of the substrate peptide was 500 nM, and the final concentration of ATP was 4.7 μM. As for other conditions, the same materials and methods as those used in the measurement of EGFR (T790M/L858R) kinase inhibitory activity were used to determine the IC50 value (nM) of each compound.

[1] = system: lung adenocarcinoma cell line NCI-H1975 expressing EGFR (T790M/L858R); assay: Growth inhibitory activity, EGFR (T790M/L858R)-expressing cell line; type: cell-based, human; details: for GI50: Homo sapiens, NCI-H1975, 72 h, three days culture, CellTiter-Glo; for growth-inhibitory activities for EGFR (d746-750)-expressing and EGFR (T790M/L858R)-expressing cells, in words: summary of Table 2, NCI-H1975 and HCC827
Method: (§3) 1) A lung adenocarcinoma cell line NCI-H1975 expressing EGFR (T790M/L858R), 2) a lung adenocarcinoma cell line HCC827 expressing EGFR (d746-750), and 3) a human epidermoid carcinoma cell line A431 expressing EGFR (WT) were each suspended in the medium recommended by ATCC. The cell suspension was seeded in each well of a 384-well flat microplate or 96-well flat plate, and cultured in an incubator containing 5% carbon dioxide gas at 37° C. for one day. The compound of the present invention and the reference compound were dissolved in DMSO, and then the DMSO solution of each test compound was diluted with DMSO to a concentration 200 times higher than the final concentration. The diluted DMSO solution of the test compound was diluted with the medium used to suspend each cell line, and the diluted solution was added to each well of the cell culture plate so that the final concentration of DMSO was 0.5%. Then, the cells were cultured in an incubator containing 5% carbon dioxide gas at 37° C. for three days. The number of cells was measured at the time of initiation and termination of the culture by using a CellTiter-Glo Assay (produced by Promega) according to a protocol recommended by Promega. The cell growth inhibition rate was calculated by the following formula, and the concentration of the test compound at which the cell growth was inhibited by 50% (GI50 (nM)) was determined. Growth inhibition rate (%)=(C−T)/(C−C0)×100
(§4) T: Luminescence intensity of well to which test compound was added
(§5) C: Luminescence intensity of well to which test compound was not added
(§6) C0: Luminescence intensity of well measured before addition of test compound

[2] = system: lung adenocarcinoma cell line HCC827 expressing EGFR (d746-750); assay: Growth inhibitory activity, EGFR (d746-750)-expressing cell line; type: cell-based; details: Homo sapiens, HCC827, 72 h; three days culture, CellTiter-Glo
Method: as §3, with “Then, the cells were cultured in an incubator containing 5% carbon dioxide gas at 37° C. for three days.” left out, “The cell growth inhibition rate was calculated by the following formula, and the concentration of the test compound at which the cell growth was inhibited by 50% (GI50 (nM)) was determined. Growth inhibition rate (%)=(C−T)/(C−C0)×100” left out
as §4, §5, §6

[3] = system: human epidermoid carcinoma cell line A431 expressing EGFR (WT); assay: Growth inhibitory activity, EGFR (WT)-expressing cell line; type: cell-based; details: for GI50: Homo sapiens, A-431, 72 h, three days culture, CellTiter-Glo; for growth-inhibitory activities for EGFR (WT)-expressing cells compared with cells expressing mutant EGFRs, in words: summary of Table 2
Method: as §3, §4, §5, §6

T1 sequence (P00533 25-1210 T790M/L858R): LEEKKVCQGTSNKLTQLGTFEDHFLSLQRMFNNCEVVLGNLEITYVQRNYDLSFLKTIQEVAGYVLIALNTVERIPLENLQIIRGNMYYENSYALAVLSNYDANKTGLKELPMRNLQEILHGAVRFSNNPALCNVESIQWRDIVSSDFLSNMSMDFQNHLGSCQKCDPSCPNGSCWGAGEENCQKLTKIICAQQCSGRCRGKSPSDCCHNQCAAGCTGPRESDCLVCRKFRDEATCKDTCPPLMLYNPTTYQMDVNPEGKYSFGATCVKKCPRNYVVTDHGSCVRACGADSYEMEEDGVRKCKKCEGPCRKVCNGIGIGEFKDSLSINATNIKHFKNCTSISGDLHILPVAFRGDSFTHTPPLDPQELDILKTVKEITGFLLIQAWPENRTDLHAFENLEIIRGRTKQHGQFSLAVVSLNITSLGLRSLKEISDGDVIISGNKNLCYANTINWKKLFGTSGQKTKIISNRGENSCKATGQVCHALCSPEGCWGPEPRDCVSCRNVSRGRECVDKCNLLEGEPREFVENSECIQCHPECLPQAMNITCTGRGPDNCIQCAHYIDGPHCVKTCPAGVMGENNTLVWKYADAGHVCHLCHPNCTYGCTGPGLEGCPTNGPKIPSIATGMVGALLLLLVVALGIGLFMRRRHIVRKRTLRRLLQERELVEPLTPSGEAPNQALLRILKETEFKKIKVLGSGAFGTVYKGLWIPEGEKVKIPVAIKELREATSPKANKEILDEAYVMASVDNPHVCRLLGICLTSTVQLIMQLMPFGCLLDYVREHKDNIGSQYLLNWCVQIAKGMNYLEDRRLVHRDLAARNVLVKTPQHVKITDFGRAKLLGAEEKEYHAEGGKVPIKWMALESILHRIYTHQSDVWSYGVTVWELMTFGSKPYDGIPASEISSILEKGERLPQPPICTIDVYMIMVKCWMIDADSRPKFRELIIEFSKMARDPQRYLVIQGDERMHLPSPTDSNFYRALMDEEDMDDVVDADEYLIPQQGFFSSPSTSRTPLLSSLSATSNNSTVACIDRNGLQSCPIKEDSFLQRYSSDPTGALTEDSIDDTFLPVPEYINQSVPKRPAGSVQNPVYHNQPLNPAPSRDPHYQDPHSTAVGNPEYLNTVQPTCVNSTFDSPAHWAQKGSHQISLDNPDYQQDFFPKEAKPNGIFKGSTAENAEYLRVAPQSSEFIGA
T5 sequence (P00533 669-1210 limits assumed): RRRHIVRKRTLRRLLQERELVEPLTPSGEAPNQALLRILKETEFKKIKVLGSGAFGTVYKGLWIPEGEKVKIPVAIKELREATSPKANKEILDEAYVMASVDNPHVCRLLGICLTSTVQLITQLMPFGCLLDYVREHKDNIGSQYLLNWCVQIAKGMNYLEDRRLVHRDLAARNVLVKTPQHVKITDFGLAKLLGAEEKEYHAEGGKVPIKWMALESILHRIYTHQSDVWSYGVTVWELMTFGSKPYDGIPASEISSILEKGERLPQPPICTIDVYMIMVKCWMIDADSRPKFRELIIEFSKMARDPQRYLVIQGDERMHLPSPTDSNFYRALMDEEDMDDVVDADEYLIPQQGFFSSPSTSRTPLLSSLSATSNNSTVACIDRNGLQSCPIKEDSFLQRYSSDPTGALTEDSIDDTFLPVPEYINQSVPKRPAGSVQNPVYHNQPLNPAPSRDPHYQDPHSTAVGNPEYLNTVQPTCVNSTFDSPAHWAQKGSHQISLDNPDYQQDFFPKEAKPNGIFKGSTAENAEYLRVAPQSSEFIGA
T3 sequence (P00533 25-1210 L858R): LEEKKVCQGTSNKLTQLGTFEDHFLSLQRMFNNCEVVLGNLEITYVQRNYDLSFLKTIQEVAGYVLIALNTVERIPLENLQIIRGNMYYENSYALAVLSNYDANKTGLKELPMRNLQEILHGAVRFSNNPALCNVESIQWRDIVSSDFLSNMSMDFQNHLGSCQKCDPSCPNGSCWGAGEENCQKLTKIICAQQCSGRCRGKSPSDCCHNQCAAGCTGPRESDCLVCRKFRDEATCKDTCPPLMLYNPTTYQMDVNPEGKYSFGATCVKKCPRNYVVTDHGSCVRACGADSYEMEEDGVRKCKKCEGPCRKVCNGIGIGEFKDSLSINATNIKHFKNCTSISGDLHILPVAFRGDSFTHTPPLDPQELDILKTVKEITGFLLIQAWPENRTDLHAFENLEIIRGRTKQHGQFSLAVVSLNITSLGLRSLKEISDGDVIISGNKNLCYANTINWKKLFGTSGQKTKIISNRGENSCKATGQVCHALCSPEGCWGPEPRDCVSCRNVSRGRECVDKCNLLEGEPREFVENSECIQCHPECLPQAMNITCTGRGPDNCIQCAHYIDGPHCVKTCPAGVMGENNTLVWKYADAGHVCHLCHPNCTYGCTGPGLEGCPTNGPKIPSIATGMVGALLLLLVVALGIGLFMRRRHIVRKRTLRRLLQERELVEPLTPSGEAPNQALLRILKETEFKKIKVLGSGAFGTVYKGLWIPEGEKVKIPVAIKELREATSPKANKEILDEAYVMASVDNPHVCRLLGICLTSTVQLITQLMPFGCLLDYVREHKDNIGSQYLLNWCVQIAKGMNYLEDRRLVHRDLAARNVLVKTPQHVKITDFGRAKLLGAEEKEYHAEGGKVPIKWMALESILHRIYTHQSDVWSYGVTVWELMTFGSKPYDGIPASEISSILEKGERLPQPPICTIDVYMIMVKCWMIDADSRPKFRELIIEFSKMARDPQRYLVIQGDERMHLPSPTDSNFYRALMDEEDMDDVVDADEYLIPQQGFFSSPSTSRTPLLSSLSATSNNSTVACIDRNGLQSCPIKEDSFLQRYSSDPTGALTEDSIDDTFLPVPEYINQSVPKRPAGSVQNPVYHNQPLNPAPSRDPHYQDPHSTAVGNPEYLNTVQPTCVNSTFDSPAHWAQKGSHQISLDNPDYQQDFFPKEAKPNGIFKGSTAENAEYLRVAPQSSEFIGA
T2 sequence (P00533 with tags, fused parts or gaps DEL746-750/T790M limits assumed): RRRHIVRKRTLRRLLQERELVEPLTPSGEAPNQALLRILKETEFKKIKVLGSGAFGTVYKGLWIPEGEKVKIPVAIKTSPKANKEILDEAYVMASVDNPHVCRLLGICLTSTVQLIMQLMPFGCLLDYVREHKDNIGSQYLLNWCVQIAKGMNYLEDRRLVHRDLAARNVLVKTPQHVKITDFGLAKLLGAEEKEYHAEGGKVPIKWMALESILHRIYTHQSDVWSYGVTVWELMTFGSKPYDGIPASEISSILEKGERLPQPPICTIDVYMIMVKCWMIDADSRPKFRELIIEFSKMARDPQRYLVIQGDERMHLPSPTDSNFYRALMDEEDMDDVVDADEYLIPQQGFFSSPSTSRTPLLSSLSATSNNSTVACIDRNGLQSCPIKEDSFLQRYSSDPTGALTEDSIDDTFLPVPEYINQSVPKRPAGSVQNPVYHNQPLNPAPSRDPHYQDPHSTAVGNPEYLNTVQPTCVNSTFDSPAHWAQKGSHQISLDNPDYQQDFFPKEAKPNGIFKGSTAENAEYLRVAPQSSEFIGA
T4 sequence (P00533 with tags, fused parts or gaps DEL746-750 limits assumed): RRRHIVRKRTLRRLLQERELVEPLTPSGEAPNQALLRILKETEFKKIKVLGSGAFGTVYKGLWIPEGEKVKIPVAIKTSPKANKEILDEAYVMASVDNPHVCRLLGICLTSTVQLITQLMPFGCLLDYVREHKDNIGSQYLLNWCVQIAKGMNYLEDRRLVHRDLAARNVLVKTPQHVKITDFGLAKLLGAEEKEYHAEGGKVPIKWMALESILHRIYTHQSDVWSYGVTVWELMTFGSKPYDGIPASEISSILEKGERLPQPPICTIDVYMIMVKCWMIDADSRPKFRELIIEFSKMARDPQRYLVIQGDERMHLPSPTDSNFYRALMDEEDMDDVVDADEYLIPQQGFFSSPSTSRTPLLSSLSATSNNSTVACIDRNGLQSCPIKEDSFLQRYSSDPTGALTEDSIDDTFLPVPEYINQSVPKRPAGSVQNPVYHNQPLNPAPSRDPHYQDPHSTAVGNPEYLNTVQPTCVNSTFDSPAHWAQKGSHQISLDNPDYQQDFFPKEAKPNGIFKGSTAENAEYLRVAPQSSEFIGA

Compound | IC50 (EGFR (T790M/L858R)) | inhibitory activities for EGFR (L858R), EGFR (d746-750), EGFR (T790M/L858R) and EGFR (d746-750/T790M), in words (EGFR (T790M/L858R)) | IC50 (EGFR (d746-750/T790M)) | IC50 (EGFR (L858R)) | IC50 (EGFR (d746-750)) | IC50 (EGFR (WT)) | inhibitory activities for EGFR (WT) compared with the mutant EGFR proteins, in words (EGFR (WT)) | GI50 [1] | growth-inhibitory activities for EGFR (d746-750)-expressing and EGFR (T790M/L858R)-expressing cells, in words [1] | GI50 [2] | GI50 [3] | growth-inhibitory activities for EGFR (WT)-expressing cells compared with cells expressing mutant EGFRs, in words [3]
C=CC(=O)N(C)C1CCc2c(-c3cnc4ccccc4c3)c3c(N)ncnc3n2C1 (stereo not drawn) [Compound I-3, N-(4-amino-5-(quinolin-3-yl)-6,7,8,9-tetrahydropyrimido[5,4-b]indolizin-8-yl)-N-methylacrylamide] | 1.3 nM | potent inhibitory activities | 0.6 nM | 1.3 nM | 1 nM | 18 nM | lower than those for the above mutant EGFR proteins | 86 nM | potent growth-inhibitory activities | 10 nM | 1800 nM | weaker growth-inhibitory activities
C=CC(=O)N[C@H]1CCc2c(-c3cnc4ccccc4c3)c3c(N)ncnc3n2C1 (single isomer, unassigned) [Compound I-2] | 0.3 nM | potent inhibitory activities | 0.2 nM | 0.4 nM | 0.4 nM | 4.3 nM | lower than those for the above mutant EGFR proteins | 27 nM | potent growth-inhibitory activities | 5 nM | 590 nM | weaker growth-inhibitory activities

Reference: US8889666B2, “Quinolyl pyrrolo pyrimidyl condensed-ring compound and salt thereof” (Taiho Pharmaceutical Co., Ltd., priority 2012, dated 2014)
